Reference: ChEMBL document CHEMBL1201862, “PubChem BioAssay data set” (2004)
Active and inactive are the calls of the source.

What was measured:
[1] = molecular target: Cytochrome P450 3A4 (Homo sapiens, UniProt P08684); conditions: Potency;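 also: confirmatory qHTS run detecting inhibitors and substrates of CYP3A4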
[2] = molecular target: Voltage-gated inwardly rectifying potassium channel KCNH2 (Homo sapiens, UniProt Q12809); conditions: Potency;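 also: confirmatory quantitative high-throughput screen measuring inhibition of hERG channel activity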
Sequence of Voltage-gated inwardly rectifying potassium channel KCNH2 (Q12809 whole entry): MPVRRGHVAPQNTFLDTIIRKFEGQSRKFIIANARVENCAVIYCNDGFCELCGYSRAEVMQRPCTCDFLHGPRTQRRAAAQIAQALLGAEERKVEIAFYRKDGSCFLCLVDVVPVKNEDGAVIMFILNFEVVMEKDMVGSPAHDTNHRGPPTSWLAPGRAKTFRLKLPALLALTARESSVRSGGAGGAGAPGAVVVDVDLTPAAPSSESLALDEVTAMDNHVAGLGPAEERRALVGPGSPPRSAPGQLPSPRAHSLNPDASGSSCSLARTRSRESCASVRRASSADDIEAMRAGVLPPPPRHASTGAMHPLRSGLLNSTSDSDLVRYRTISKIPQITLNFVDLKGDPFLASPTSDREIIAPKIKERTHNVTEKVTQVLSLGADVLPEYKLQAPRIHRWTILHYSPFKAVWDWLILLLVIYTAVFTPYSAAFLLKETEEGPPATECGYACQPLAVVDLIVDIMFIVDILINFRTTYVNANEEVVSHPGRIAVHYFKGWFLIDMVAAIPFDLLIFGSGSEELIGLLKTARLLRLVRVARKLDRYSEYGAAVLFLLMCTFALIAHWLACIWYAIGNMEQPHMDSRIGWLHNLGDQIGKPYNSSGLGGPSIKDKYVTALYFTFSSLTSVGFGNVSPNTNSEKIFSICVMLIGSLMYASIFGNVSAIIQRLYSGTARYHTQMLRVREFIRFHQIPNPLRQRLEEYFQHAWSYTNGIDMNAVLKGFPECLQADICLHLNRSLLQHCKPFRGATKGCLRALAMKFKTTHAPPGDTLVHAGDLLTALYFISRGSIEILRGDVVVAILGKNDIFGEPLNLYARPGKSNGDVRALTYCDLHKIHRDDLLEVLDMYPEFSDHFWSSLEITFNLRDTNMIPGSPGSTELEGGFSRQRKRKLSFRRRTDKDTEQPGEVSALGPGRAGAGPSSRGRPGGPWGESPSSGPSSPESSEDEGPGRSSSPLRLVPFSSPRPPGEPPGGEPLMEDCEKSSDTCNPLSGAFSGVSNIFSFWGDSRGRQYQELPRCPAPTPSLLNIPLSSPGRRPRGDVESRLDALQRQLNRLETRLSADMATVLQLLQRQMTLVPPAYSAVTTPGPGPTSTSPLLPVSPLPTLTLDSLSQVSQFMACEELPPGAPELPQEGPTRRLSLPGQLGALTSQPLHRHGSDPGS

[3] = molecular target: 26S proteasome non-ATPase regulatory subunit 14 (Homo sapiens, UniProt O00487); experiment: inhibition of proteasome subunit RPN11 – biochemical, fluorescence polarization, uHTS hits, confirmation (AID 602368); format: functional
Sequence of 26S proteasome non-ATPase regulatory subunit 14 (O00487 whole entry): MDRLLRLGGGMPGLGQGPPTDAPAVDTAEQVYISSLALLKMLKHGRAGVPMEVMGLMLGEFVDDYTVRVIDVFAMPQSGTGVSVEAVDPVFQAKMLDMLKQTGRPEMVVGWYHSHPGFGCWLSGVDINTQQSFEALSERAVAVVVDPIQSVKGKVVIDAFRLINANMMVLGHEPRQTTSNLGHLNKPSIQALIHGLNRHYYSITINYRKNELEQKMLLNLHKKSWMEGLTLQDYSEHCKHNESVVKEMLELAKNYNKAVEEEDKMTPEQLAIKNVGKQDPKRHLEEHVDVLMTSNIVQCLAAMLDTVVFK

[4] = molecular target: 72 kDa type IV collagenase (Homo sapiens, UniProt P08253); experiment: Dose Response validation of uHTS RPN11 inhibitor hits using a MMP-2 Fluorescence assay.; format: functional
Sequence of 72 kDa type IV collagenase (P08253 whole entry): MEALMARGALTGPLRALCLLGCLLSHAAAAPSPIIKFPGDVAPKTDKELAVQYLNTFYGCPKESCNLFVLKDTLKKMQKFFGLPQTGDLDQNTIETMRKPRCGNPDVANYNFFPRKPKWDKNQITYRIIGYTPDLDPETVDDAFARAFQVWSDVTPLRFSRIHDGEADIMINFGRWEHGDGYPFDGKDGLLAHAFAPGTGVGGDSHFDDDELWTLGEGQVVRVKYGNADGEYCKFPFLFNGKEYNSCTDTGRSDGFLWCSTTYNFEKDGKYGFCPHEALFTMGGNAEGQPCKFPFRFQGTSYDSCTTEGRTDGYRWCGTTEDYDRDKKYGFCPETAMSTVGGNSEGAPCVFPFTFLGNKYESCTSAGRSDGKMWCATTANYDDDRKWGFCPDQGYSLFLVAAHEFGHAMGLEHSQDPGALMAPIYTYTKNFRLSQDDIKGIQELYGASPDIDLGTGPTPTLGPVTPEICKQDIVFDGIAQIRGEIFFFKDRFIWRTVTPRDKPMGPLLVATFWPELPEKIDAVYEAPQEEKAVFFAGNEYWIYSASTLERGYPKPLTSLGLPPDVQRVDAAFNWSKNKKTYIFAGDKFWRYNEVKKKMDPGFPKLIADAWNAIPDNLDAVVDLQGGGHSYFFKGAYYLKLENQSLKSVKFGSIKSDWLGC

[5] = molecular target: Prothrombin (Bos taurus, UniProt P00735); experiment: thrombin inhibition, dose response, biochemical, fluorescence polarization, uHTS hits (AID 602369); format: functional
[6] = inhibitors of firefly luciferase expression or activity, dose response, H4 neuroglioma cells, luminescence (AID 1990); format: functional, cell-based
[7] = Luminescence Cell-Based Dose Response HTS to Identify Inhibitors of 5'UTR Stem-Loop Driven Prion Protein mRNA Translation in H4 Neuroglioblastoma Cells. [Related pubchem assays: 1827 (Project Summary), 1813 (Primary HTS)]; format: functional
[8] = inhibitors of SNCA 5'UTR-driven reporter translation, confirmation, H4 neuroglioma cells, luminescence (AID 1988); format: functional, cell-based
[9] = molecular target: T1, Ubiquitin-conjugating enzyme E2 N (Homo sapiens, UniProt P61088); format: functional;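 also: Dose-response confirmation in a TR-FRET assay detecting UBC13-driven polyubiquitin chain formation, inhibition measured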
T1 sequence (P61088 whole entry): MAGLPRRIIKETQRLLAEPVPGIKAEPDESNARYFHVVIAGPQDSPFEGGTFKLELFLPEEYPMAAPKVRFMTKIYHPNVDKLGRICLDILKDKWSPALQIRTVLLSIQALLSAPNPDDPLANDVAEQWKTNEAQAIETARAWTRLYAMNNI

[10] = molecular target: T2, Endoribonuclease toxin MazF (Escherichia coli K-12, UniProt P0AE70); experiment: MazF toxin RNase activators, dose response, biochemical, fluorescence, single-stranded RNA substrate, uHTS hits (AID 588481); format: functional
T2 sequence (P0AE70 whole entry): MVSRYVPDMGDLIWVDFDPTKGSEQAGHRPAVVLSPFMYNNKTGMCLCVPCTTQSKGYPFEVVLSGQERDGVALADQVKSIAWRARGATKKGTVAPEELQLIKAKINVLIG

[11] = molecular target: T2, Endoribonuclease toxin MazF; experiment: fluorescent RNA oligo signal without MazF, dose response, counter-screen for MazEF activator project, biochemical, fluorescence, single-stranded RNase substrate (AID 588502); format: functional
[12] = Luminescence Cell-Based Dose Retest to Confirm Inhibitors of Cancer Stem Cells. [Related pubchem assays (depositor defined):AID2717, AID2721]; format: functional; conditions: Homo sapiens
[13] = cells; format: functional
[14] = NIH-3T3 fibroblast cytotoxicity, dose response, cytotoxicity control, cell-based, fluorescence, Alamar Blue, secondary assay (AID 2327); format: functional;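 also: NIH-3T3 mouse fibroblasts cultured with fluconazole at 8 µg/mL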
[15] = C. albicans growth with fluconazole, confirmation, fluorescence, retest (AID 2467); format: functional, cell-based
[16] = microbe, parasite or virus in culture; format: functional; conditions: Mycobacterium tuberculosis
[17] = molecular target: Heat shock protein HSP 90-alpha (Homo sapiens, UniProt P07900); format: functional, organism-based
[18] = molecular target: T3, Short transient receptor potential channel 4 (Mus musculus, UniProt Q9QUQ5); experiment: mouse TRPC4 channel activators, dose response, cell-based, HEK293 TRPC4/mu-opioid, Fluo-4 calcium (AID 434937); format: functional
T3 sequence (Q9QUQ5 whole entry): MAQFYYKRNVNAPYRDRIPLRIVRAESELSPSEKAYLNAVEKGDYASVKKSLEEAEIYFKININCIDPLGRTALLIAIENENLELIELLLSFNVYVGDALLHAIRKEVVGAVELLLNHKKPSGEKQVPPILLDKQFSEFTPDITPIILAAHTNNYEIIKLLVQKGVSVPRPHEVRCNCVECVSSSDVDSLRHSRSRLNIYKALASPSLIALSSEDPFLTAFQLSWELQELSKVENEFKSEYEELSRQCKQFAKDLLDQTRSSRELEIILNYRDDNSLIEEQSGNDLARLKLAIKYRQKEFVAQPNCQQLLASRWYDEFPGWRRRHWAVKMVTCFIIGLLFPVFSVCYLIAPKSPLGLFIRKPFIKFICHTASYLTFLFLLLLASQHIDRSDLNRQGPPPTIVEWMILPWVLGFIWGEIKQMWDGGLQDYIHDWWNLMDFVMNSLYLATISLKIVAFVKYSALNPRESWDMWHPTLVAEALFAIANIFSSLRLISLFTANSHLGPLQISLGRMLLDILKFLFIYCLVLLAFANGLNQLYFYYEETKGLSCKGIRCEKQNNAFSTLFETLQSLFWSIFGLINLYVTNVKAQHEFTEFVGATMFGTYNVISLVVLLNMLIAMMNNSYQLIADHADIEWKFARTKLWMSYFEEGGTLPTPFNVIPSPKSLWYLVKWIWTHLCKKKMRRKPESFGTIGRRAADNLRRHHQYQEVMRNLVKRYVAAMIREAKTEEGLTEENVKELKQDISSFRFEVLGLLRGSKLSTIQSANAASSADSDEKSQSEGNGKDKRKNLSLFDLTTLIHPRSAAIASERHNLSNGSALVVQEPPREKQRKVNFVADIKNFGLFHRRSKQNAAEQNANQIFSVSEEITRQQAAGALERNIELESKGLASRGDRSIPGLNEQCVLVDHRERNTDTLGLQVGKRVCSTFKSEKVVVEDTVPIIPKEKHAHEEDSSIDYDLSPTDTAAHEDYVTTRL

[19] = molecular target: T4, Replicative DNA helicase DnaB (Mycobacterium tuberculosis, UniProt P9WMR3); experiment: DnaB intein splicing inhibitors, dose response, biochemical, cell-free fluorescence (AID 449749); format: functional
T4 sequence (P9WMR3 whole entry): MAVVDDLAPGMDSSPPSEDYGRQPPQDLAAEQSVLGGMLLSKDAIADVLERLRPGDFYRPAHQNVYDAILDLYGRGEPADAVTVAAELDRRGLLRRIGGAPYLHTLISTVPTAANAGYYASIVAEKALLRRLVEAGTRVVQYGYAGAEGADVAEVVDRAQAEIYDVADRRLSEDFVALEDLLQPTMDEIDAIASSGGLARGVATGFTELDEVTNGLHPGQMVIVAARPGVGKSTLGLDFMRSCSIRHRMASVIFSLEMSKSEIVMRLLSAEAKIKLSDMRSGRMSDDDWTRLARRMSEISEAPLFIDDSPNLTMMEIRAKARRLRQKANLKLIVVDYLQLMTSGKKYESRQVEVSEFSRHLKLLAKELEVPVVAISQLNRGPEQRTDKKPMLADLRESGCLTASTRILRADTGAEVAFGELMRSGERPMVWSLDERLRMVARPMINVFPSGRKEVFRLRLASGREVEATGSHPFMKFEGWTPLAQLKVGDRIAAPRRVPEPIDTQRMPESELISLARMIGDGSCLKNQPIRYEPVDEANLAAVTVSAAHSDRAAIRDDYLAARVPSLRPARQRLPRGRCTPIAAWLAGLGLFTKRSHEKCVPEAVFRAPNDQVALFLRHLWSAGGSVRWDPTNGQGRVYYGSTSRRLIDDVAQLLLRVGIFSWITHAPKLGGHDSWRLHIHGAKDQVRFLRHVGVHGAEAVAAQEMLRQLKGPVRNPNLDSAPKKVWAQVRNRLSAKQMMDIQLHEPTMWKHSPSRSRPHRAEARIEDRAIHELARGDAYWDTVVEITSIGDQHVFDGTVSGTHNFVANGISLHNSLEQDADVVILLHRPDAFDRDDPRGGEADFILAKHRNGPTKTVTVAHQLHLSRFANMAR

[20] = molecular target: T5, Protein RecA (Mycobacterium tuberculosis, UniProt P9WHJ3); experiment: Fluorescence Cell-Free Homogeneous Dose Retest to Identify Inhibitors of RecA-Intein Splicing Activity. [Related pubchem assays (depositor defined):AID2097, AID2223, AID489010, AID492950]; format: functional
T5 sequence (P9WHJ3 whole entry): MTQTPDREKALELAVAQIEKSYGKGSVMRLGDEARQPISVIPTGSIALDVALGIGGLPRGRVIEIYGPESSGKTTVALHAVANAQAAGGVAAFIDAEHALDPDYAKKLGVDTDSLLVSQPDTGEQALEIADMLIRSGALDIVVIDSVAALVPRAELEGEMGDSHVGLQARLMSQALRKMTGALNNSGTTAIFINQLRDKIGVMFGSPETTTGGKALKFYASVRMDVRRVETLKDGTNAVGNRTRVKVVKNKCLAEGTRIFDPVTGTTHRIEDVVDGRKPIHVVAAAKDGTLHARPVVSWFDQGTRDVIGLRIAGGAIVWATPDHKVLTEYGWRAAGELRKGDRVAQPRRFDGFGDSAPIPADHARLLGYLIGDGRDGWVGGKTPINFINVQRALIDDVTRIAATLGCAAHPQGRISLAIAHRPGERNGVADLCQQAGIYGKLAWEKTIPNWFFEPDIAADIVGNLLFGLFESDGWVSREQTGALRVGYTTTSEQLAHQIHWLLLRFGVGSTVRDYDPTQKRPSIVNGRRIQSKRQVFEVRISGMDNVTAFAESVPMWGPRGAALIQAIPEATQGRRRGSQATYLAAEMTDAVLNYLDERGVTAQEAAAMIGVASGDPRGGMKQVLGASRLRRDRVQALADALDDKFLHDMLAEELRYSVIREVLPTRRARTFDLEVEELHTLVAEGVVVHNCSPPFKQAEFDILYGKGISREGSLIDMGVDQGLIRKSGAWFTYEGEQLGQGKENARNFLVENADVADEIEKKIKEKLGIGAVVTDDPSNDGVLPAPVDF

[21] = test system: P388/ADR; experiment: cells; format: functional; conditions: Mus musculus
[22] = test system: SN12K1; experiment: cells; format: functional; conditions: Homo sapiens
[23] = test system: P388; experiment: cells; format: functional; conditions: Mus musculus
[24] = test system: Streptococcus sp. 'group A'; experiment: growth inhibition of control SK(-) GAS strain, dose response, counter-screen for streptokinase expression inhibitor project, luminescence, kanamycin, BacTiterGlo, confirmation (AID 1900); format: functional, organism-based
[25] = test system: Streptococcus; experiment: Group A Streptococcus viability loss, dose response, counter-screen for streptokinase expression inhibitor project, luminescence, BacTiterGlo (AID 1915); format: functional, organism-based;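 also: potency for reduction of bacterial viability or growth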
[26] = test system: INS1; experiment: beta cell apoptosis inhibitors, cytokine rescue, dose response, luminescence, retest (AID 449756); format: functional, cell-based; conditions: Rattus norvegicus;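 also: cell death triggered by IL-1 beta plus TNF-alpha plus IFN-gamma mixture; protective hits raise ATP signal compared with cytokine alone wells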

Sequence of Cytochrome P450 3A4 (P08684 whole entry): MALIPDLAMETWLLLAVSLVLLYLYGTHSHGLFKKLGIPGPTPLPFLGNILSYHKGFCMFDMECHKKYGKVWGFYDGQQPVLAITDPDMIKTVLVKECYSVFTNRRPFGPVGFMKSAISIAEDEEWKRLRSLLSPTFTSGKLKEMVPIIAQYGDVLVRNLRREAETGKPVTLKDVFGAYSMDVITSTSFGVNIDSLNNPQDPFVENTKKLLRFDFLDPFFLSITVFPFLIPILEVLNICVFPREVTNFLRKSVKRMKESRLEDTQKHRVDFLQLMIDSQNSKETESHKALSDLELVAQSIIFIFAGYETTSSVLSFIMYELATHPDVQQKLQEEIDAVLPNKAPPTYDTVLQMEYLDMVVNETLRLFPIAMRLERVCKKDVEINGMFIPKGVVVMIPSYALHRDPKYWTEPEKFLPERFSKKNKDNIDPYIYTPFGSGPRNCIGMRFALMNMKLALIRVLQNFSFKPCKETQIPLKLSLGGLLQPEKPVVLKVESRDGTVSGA

Structure (SMILES): CCCCCCCC/C=C\CCCCCCCC(=O)N(CCO)CCO
- AC50 [1]: 12.6 µM (inconclusive)
- AC50 [2]: 31.6 µM (inconclusive)

Structure (SMILES): Cc1cc(C)c2c(N)c(C(=O)N/N=C/c3cccs3)sc2n1
- IC50 [3]: 8.64 µM (active)
- IC50 [4]: > 100 µM (inactive)
- IC50 [5]: 35.8 µM (active)

Structure (SMILES): COC(=O)c1c(NC(=O)c2nc3ccccc3s2)sc2c1CC(C)(C)NC2(C)C
- EC50 [6]: 8.05 µM (active)
- EC50 [7]: 8.33 µM (active)
- EC50 [8]: 8.54 µM (active)
- IC50 [9]: > 20 µM (inactive)
- EC50 [10]: > 99 µM (inactive)
- EC50 [11]: > 99 µM (inactive)

Structure (SMILES): CC(C)OC(=O)c1c2c(n3ccccc13)C(=O)c1ccccc1C2=O
- AC50 [12]: 2.17 µM (active)
- IC50 [13]: 0.44 µM (active)
- EC50 [10]: > 99 µM (inactive)
- EC50 [11]: > 99 µM (inactive)

Structure (SMILES): O=C(/C=C/c1cc(Br)ccc1O)c1ccco1
- EC50 [14]: > 150 µM (inconclusive)
- EC50 [15]: 2.26 µM (active)
- CC50 [16]: 7.21 µM (active)
- AC50 [17]: 7.73 µM (active)

Structure (SMILES): Cc1cccc(C(=O)OC2CCCN(C)C2)c1C (centres undefined)
- EC50 [18]: 0.841 µM (active)

Structure (SMILES): CCOC(=O)c1ncn2c1[C@@H]1CCCN1C(=O)c1cc(OC)ccc1-2
- AC50 [2]: 25.1 µM (inconclusive)

Structure (SMILES): O=C(CCl)NN=C(c1ccccc1)c1ccccc1
- CC50 [16]: 6.85 µM (active)
- AC50 [19]: 12.1 µM (active)
- EC50 [10]: 61.2 µM (inactive)
- EC50 [20]: 2.71 µM (active)
- EC50 [11]: > 99 µM (inactive)

Structure (SMILES): Nc1nc2[nH]c(=O)cnc2c(=O)[nH]1 [ISOXANTHOPTERIN]
- GI50 [21]: > 125 µM (inactive)
- GI50 [22]: > 125 µM (inactive)
- GI50 [23]: > 125 µM (inactive)
- AC50 [2]: 17.8 µM (inconclusive)

Structure (SMILES): ClC1=C(Cl)C2(Cl)C3C4C=CC(C4)C3C1(Cl)C2(Cl)Cl (centres undefined) [ALDRIN]
- AC50 [2]: 20 µM (inconclusive)

Structure (SMILES): CN(C)C1(CNC(=O)Nc2ccc(Cl)c(Cl)c2)CCCCC1
- CC50 [16]: > 40 µM (active)
- EC50 [18]: 1.68 µM (active)

Structure (SMILES): O=C(N/N=C/c1cc([N+](=O)[O-])ccc1O)c1cc(-c2ccccc2)nc2ccccc12
- EC50 [24]: 1.83 µM (active)
- EC50 [25]: 2.65 µM (active)
- AC50 [26]: 1.24 µM (active)
- IC50 [3]: 14.8 µM (active)
- IC50 [4]: > 100 µM (inactive)
- IC50 [5]: 10.7 µM (active)

Structure (SMILES): CCOc1cc(/C=C2\SC(=S)N(NC(=O)c3cccnc3)C2=O)ccc1O
- IC50 [3]: 25.8 µM (active)
- IC50 [4]: > 100 µM (inactive)
- IC50 [5]: 35.7 µM (active)

Structure (SMILES): COc1cccc(Nc2nc(-c3ccccc3O)nc3ccccc23)c1
- EC50 [10]: > 99 µM (inactive)
- EC50 [11]: 40.7 µM (inactive)
